Experimental data as given in patent publication US10407409B2, “6-(5-hydroxy-1H-pyrazol-1-yl)nicotinamide inhibitors of PHD” (Takeda Pharmaceutical Company Limited, priority 2013, dated 2019).

How the values were obtained:
[1] = biological target: PHD2 enzyme (residues 181-417) (Homo sapiens (Human), UniProt Q9GZT9); test: Inhibition of PHD enzyme (LC/MS peptide hydroxylation assay); assay type: biochemical; conditions: PHD2 (residues 181-417) 5 nM, 60 min pre-incubation; -log(IC50), IC50 molar
PHD2 enzyme (residues 181-417), sequence (Q9GZT9 181-417): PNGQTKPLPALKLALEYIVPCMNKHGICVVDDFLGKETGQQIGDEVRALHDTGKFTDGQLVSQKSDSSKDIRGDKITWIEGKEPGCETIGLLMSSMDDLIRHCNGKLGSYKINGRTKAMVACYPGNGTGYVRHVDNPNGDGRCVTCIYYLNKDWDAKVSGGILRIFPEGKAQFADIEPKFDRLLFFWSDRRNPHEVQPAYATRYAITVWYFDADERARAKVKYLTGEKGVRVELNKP
Summary of the method: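 PHD2 (5 nM final) preincubated with inhibitor 60 min at RT in 50 mM HEPES, 50 mM KCl, 0.5 mM TCEP, 2 uM FeCl2, 0.1 mg/ml BSA, pH 7.3. Reaction started with biotin-peptide (1 uM), 2-oxoglutarate (2 uM), ascorbate (1 mM), quenched at 60 min; hydroxylated product by LC/MS, reported as pIC50.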

[2] = test system: HIF1a protein in H9c2 rat cardiomyocytes; test: Cell-based HIF-alpha stabilization assay (inhibition of PHD in cells); conditions: Rattus norvegicus, H9c2, 24 h, 24 hrs compound incubation, HIF1a protein by ELISA, read-out: Inhibition of PHD in cells (pEC50) (converted)
Summary of the method: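 Rat H9c2 cardiomyocytes, cultured 24 h, were treated 24 h with an 11-point serial dilution of compound. HIF1a in whole-cell lysates was quantified by ELISA as % of the maximal desferrioxamine response. EC50 came from curve fitting; EC50pos is the concentration reaching 50% of the desferrioxamine maximum.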

SMILES	PHD Inhibition (pIC50) [1]	EC50 [2]
Cc1c(-c2cnn(-c3ccc(C(=O)N4CCOCC4)cn3)c2O)ccc(C#N)c1F [Example 327, 2-fluoro-4-(5-hydroxy-1-(5-(morpholine-4-carbonyl)pyridin-2-yl)-1H-pyrazol-4-yl)-3-methylbenzonitrile]	8.47	589 nM
CCN1CCN(C(=O)c2ccc(-n3ncc(-c4ccc(C#N)c(F)c4C)c3O)nc2)C[C@@H]1C [Example 328, (S)-4-(1-(5-(4-ethyl-3-methylpiperazine-1-carbonyl)pyridin-2-yl)-5-hydroxy-1H-pyrazol-4-yl)-2-fluoro-3-methylbenzonitrile]	8.39	309 nM
Cc1c(-c2cnn(-c3ccc(C(=O)N4CCN(C)[C@@H](C)C4)cn3)c2O)ccc(C#N)c1F [Example 329, (S)-4-(1-(5-(3,4-dimethylpiperazine-1-carbonyl)pyridin-2-yl)-5-hydroxy-1H-pyrazol-4-yl)-2-fluoro-3-methylbenzonitrile]	8.50	331 nM
CCN1CCN(C(=O)c2ccc(-n3ncc(-c4ccc(C#N)c(F)c4C)c3O)nc2)[C@H](C)C1 [Example 330, (R)-4-(1-(5-(4-ethyl-2-methylpiperazine-1-carbonyl)pyridin-2-yl)-5-hydroxy-1H-pyrazol-4-yl)-2-fluoro-3-methylbenzonitrile]	8.34	407 nM
Cc1c(-c2cnn(-c3ccc(C(=O)N4CCC[C@@H](N(C)C5CC5)C4)cn3)c2O)ccc(C#N)c1F [Example 331, (R)-4-(1-(5-(3-(cyclopropyl(methyl)amino)piperidine-1-carbonyl)pyridin-2-yl)-5-hydroxy-1H-pyrazol-4-yl)-2-fluoro-3-methylbenzonitrile]	8.33	813 nM
Cc1c(-c2cnn(-c3ccc(C(=O)N4CCC[C@H](N(C)CC(F)(F)F)C4)cn3)c2O)ccc(C#N)c1F [Example 332, (S)-2-fluoro-4-(5-hydroxy-1-(5-(3-(methyl(2,2,2-trifluoroethyl)amino)piperidine-1-carbonyl)pyridin-2-yl)-1H-pyrazol-4-yl)-3-methylbenzonitrile]	8.47	759 nM
Cc1c(-c2cnn(-c3ccc(C(=O)N4CCC[C@H](N(C)CC(F)F)C4)cn3)c2O)ccc(C#N)c1F [Example 333, (S)-4-(1-(5-(3-((2,2-difluoroethyl)(methyl)amino)piperidine-1-carbonyl)pyridin-2-yl)-5-hydroxy-1H-pyrazol-4-yl)-2-fluoro-3-methylbenzonitrile]	8.55	741 nM
Cc1c(-c2cnn(-c3ccc(C(=O)N4CCN5CCC[C@@H]5C4)cn3)c2O)ccc(C#N)c1F [Example 334, (R)-2-fluoro-4-(5-hydroxy-1-(5-(octahydropyrrolo[1,2-a]pyrazine-2-carbonyl)pyridin-2-yl)-1H-pyrazol-4-yl)-3-methylbenzonitrile]	8.50	1380 nM
Cc1c(-c2cnn(-c3ccc(C(=O)N4CC(N5CCCCC5)C4)cn3)c2O)ccc(C#N)c1F [Example 335, 2-fluoro-4-(5-hydroxy-1-(5-(3-(piperidin-1-yl)azetidine-1-carbonyl)pyridin-2-yl)-1H-pyrazol-4-yl)-3-methylbenzonitrile]	8.43	1320 nM
Cc1c(-c2cnn(-c3ccc(C(=O)N4CCC[C@@H](N(C)CC(F)F)C4)cn3)c2O)ccc(C#N)c1F [Example 336, (R)-4-(1-(5-(3-((2,2-difluoroethyl)(methyl)amino)piperidine-1-carbonyl)pyridin-2-yl)-5-hydroxy-1H-pyrazol-4-yl)-2-fluoro-3-methylbenzonitrile]	8.53	977 nM
Cc1c(-c2cnn(-c3ccc(C(=O)N4CCN(C(C)C)[C@H](C)C4)cn3)c2O)ccc(C#N)c1F [Example 337, (R)-2-fluoro-4-(5-hydroxy-1-(5-(4-isopropyl-3-methylpiperazine-1-carbonyl)pyridin-2-yl)-1H-pyrazol-4-yl)-3-methylbenzonitrile]	8.36	1350 nM
CCN1CCN(C(=O)c2ccc(-n3ncc(-c4ccc(C#N)c(F)c4C)c3O)nc2)C[C@H]1C [Example 338, (R)-4-(1-(5-(4-ethyl-3-methylpiperazine-1-carbonyl)pyridin-2-yl)-5-hydroxy-1H-pyrazol-4-yl)-2-fluoro-3-methylbenzonitrile]	8.40	933 nM
Cc1c(-c2cnn(-c3ccc(C(=O)N4CCN(C(C)C)[C@@H](C)C4)cn3)c2O)ccc(C#N)c1F [Example 339, (S)-2-fluoro-4-(5-hydroxy-1-(5-(4-isopropyl-3-methylpiperazine-1-carbonyl)pyridin-2-yl)-1H-pyrazol-4-yl)-3-methylbenzonitrile]	8.29	2040 nM
Cc1c(-c2cnn(-c3ccc(C(=O)N4CCN(C)[C@H](C)C4)cn3)c2O)ccc(C#N)c1F [Example 340, (R)-4-(1-(5-(3,4-dimethylpiperazine-1-carbonyl)pyridin-2-yl)-5-hydroxy-1H-pyrazol-4-yl)-2-fluoro-3-methylbenzonitrile]	8.39	759 nM
CCN1CCN(C(=O)c2ccc(-n3ncc(-c4ccc(C#N)c(F)c4C)c3O)nc2)[C@@H](C)C1 [Example 341, (S)-4-(1-(5-(4-ethyl-2-methylpiperazine-1-carbonyl)pyridin-2-yl)-5-hydroxy-1H-pyrazol-4-yl)-2-fluoro-3-methylbenzonitrile]	8.47	589 nM
Cc1c(-c2cnn(-c3ccc(C(=O)N4CC5(CN(C)C5)C4)cn3)c2O)ccc(C#N)c1F [Example 342, 2-fluoro-4-(5-hydroxy-1-(5-(6-methyl-2,6-diazaspiro[3.3]heptane-2-carbonyl)pyridin-2-yl)-1H-pyrazol-4-yl)-3-methylbenzonitrile]	7.60	427 nM
Cc1cc(C#N)c(F)cc1-c1cnn(-c2ccc(C(=O)N3CC4(CN(C)C4)C3)cn2)c1O [Example 343, 2-fluoro-4-(5-hydroxy-1-(5-(6-methyl-2,6-diazaspiro[3.3]heptane-2-carbonyl)pyridin-2-yl)-1H-pyrazol-4-yl)-5-methylbenzonitrile]	8.07	1150 nM
Cc1cc(C#N)ccc1-c1cnn(-c2ccc(C(=O)N3CC(N4CCCCC4)C3)cn2)c1O [Example 344, 4-(5-hydroxy-1-(5-(3-(piperidin-1-yl)azetidine-1-carbonyl)pyridin-2-yl)-1H-pyrazol-4-yl)-3-methylbenzonitrile]	8.17	468 nM
Cc1cc(C#N)ccc1-c1cnn(-c2ccc(C(=O)N3CC(N(C)C)C3)cn2)c1O [Example 345, 4-(1-(5-(3-(dimethylamino)azetidine-1-carbonyl)pyridin-2-yl)-5-hydroxy-1H-pyrazol-4-yl)-3-methylbenzonitrile]	8.35	363 nM
Cc1cc(C#N)ccc1-c1cnn(-c2ccc(C(=O)N3CCC4(CCN(C)C4)C3)cn2)c1O (stereo not shown) [Example 346, 4-(5-hydroxy-1-(5-(7-methyl-2,7-diazaspiro[4.4]nonane-2-carbonyl)pyridin-2-yl)-1H-pyrazol-4-yl)-3-methylbenzonitrile]	7.75	372 nM
